According to patent publication US11591658B2, “Methods for sub-typing and treating cancer” (HI-STEM gGmbH, priority 2017, dated 2023):

Key:
EGLN1 = molecular target: T1, EGLN1 (Homo sapiens, UniProt Q9GZT9); assay: HIF1 protein levels in BCAT1 knockdown cells treated with cobalt chloride; assay type: cell-based; details: BCAT1 knockdown cells (HL-60), cobalt chloride given to inhibit EGLN1 activity, FIG. 4g
T1 construct: endogenous in cells; host or cells: HL-60 AML cells transduced with shBCAT1 (BCAT1 knockdown)
Description: To gain additional mechanistic insight into cellular pathways affected by BCAT1, we utilized the HL-60 AML cell line. […] Western blot analysis confirmed HIF1 as downstream target of BCAT1 (FIG. 4e), and decreased HIF1 levels were due to enhanced protein degradation since the relative amount of hydroxylated Proline564 was increased after BCAT1 knockdown (FIG. 4f), as intracellular αKG is a co-factor of EGLN1 activity^14. […] Finally, lentiviral overexpression of HIF1 as well as shRNA-mediated knockdown of EGLN1 was sufficient to rescue the proliferation and survival defect after BCAT1-KD (FIG. 4h, i). Together, these analyses place BCAT1 upstream of HIF1 mediating its effect via the αKG-dependent activation of EGLN1. […] Knockdown of HIF1 is sufficient to abrogate LSC function^16.

[1] = tested on: AML cells with long-term BCAT1-overexpression; assay: Sensitivity of long-term BCAT1-overexpressing AML cells to daunorubicin; assay type: cell-based; details: FIG. 5i
Description: AML patient survival is usually associated with sensitivity to standard chemotherapy^23,24. […] Along these lines, BCAT1 expression was consistently higher (on average 6.6-fold) in the relapse versus the paired diagnostic sample (FIG. 5j).

T1 sequence (Q9GZT9 whole entry): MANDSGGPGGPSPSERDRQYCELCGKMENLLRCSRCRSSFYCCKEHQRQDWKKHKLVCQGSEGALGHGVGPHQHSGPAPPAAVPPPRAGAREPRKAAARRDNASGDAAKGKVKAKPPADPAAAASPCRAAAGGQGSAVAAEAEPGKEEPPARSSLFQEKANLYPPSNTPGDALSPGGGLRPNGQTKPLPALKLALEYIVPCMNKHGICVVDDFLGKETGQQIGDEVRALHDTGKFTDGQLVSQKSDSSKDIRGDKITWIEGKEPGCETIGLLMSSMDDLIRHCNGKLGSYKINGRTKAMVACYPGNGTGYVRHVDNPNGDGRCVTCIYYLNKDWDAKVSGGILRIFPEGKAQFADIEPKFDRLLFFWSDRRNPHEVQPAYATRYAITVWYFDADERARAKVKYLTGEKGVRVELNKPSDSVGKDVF

SMILES	HIF1 protein levels (EGLN1)	resistance to daunorubicin [1]
[Cl][Co][Cl] [cobalt chloride]	attenuated decrease of HIF1 protein levels	–
COc1cccc2c1C(=O)c1c(O)c3c(c(O)c1C2=O)C[C@@](O)(C(C)=O)C[C@@H]3O[C@H]1C[C@H](N)[C@H](O)[C@H](C)O1 [daunorubicin]	–	increased resistance
